Experimental data as given in patent US8883826B2, “Alkynyl derivatives as modulators of metabotropic glutamate receptors” (Addex Pharma SA, priority 2004, dated 2014).

Key:
mGluR5 = biological target: T1, mGluR5 (Rattus norvegicus, UniProt P31424); test: mGluR5 binding assay ([3H]-MPEP radioligand competition); details: competition with 3 nM [3H]-MPEP, rat brain cortical membranes, 1 h at 4 °C; mean of at least three independent experiments in duplicate
T1 construct: tissue Charles River Laboratories; host or cells: rat brain cortex membranes (Sprague-Dawley)
Outline: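 Rat cortical membranes (50 μg) were incubated 1 h at 4 °C with 3 nM [3H]-MPEP and compound (0.003 nM-30 μM, 8 points) in HEPES buffer pH 7.4 with Mg2+, Ca2+ and NaCl. 30 μM MPEP defined non-specific binding, and bound label was counted after filtration. IC50 came from non-linear regression, as the mean of ≥3 experiments run in duplicate.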

T1 sequence (P31424 21-1203): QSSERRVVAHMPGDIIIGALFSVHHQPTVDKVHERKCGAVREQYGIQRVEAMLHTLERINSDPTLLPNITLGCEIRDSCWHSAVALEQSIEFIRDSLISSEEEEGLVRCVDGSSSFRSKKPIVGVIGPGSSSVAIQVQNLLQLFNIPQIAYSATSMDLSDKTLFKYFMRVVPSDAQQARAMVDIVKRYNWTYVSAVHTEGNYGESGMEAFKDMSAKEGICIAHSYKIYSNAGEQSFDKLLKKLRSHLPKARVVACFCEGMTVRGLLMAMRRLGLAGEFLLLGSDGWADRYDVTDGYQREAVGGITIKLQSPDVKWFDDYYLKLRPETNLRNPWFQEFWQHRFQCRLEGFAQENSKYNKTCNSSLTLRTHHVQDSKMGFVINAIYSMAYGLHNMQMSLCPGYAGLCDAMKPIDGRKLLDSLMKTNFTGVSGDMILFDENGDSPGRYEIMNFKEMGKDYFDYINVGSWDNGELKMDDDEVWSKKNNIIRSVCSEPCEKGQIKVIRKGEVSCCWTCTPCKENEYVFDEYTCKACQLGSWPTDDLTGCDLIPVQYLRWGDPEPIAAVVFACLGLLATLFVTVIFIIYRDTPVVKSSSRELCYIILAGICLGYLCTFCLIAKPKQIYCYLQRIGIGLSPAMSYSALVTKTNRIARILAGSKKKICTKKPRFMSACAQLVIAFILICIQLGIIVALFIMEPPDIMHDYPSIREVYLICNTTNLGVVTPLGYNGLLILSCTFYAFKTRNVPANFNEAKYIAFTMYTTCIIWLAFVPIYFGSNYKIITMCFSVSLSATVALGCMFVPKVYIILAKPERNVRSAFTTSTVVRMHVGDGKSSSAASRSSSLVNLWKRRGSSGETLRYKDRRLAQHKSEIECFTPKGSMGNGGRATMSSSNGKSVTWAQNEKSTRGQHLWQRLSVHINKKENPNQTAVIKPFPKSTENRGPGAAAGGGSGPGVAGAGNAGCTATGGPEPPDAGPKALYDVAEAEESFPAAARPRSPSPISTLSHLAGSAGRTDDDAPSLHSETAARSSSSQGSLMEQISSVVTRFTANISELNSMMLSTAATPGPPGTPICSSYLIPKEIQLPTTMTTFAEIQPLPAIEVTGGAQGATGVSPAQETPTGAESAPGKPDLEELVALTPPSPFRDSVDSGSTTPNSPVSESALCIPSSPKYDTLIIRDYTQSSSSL

Row | SMILES | IC50 (mGluR5) | melting point
1 | Clc1ccc(-c2noc(CCC#Cc3ccccn3)n2)cc1 [Example 47, 2-(4-(3-(4-Chlorophenyl)-1,2,4-oxadiazol-5-yl)but-1-ynyl)pyridine] | < 10 µM | 75 to 77 °C
2 | O=C(CCC#Cc1ccccn1)Nc1ccc(F)cc1F [Example 246, N-(2,4-Difluorophenyl)-5-(pyridin-2-yl)pent-4-ynamide] | < 10 µM | 132 to 133.2 °C
3 | O=C1c2ccccc2CN1CCC#Cc1ccccn1 [Example 234, 2-(4-(Pyridin-2-yl)but-3-ynyl)isoindolin-1-one] | < 10 µM | 94 to 98 °C
4 | Cc1cc(F)ccc1NC(=O)CCC#Cc1ccccn1 [Example 188, N-(4-Fluoro-2-methyl-phenyl)-5-(pyridin-2-yl)pent-4-ynamide] | < 10 µM | 110 to 114 °C
5 | Cc1ccc(F)cc1-c1noc(CCC#Cc2ccccn2)n1 [Example 59, 2-(4-(3-(5-Fluoro-2-methylphenyl)-1,2,4-oxadiazol-5-yl)but-1-ynyl)pyridine] | < 10 µM | 90 to 91 °C
6 | O=C(CCC#Cc1ccccn1)Nc1cccc(Cl)c1 [Example 245, N-(3-Chlorophenyl)-5-(pyridin-2-yl)pent-4-ynamide] | < 10 µM | 167.8 to 168.8 °C
7 | Cc1nc(C#CCCc2ccccc2)c[nH]1 [Example 11, 2-Methyl-4-(4-phenylbut-1-ynyl)-1H-imidazole] |  | 124 to 126 °C
8 | O=C(CCC#Cc1ccccn1)Nc1cccc(F)c1 [Example 187, N-(3-Fluorophenyl)-5-(pyridin-2-yl)pent-4-ynamide] | < 10 µM | 110 to 114 °C
9 | Cc1cc(F)ccc1NC(=O)CCC#Cc1cccc(CF)n1 [Example 252, 5-(6-(Fluoromethyl)pyridin-2-yl)-N-(4-fluoro-2-methyl-phenyl)pent-4-ynamide] |  | 122 to 125 °C
10 | Clc1ccc(-c2noc(CCC#Cc3ccccn3)n2)c(Cl)c1 [Example 57, 2-(4-(3-(2,4-Dichlorophenyl)-1,2,4-oxadiazol-5-yl)but-1-ynyl)pyridine] | < 10 µM | 77 to 78 °C
11 | CN(C(=O)CCC#Cc1ccccn1)c1ccccc1 [Example 12, N-Methyl-N-phenyl-5-(pyridin-2-yl)pent-4-ynamide] | < 10 µM | 68 to 71 °C
12 | O=c1n(CCC#Cc2ccccn2)nc2ccccn12 [Example 39, 2-(4-(Pyridin-2-yl)but-3-ynyl)-[1,2,4]triazolo[4,3-a]pyridin-3(2H)-one] |  | 95.5 to 96 °C
13 | FCc1cccc(C#CCCn2nc3cc(F)c(F)cc3n2)n1 [Example 154, 5,6-Difluoro-2-(4-(6-(fluoromethyl)pyridin-2-yl)but-3-ynyl)-2H-benzo[d][1,2,3]triazole] | < 10 µM | 104 to 105 °C
14 | Cc1c(-c2ccc(F)cc2)nnn1CCC#Cc1ccccn1 [Example 258, 2-(4-(4-(4-Fluorophenyl)-5-methyl-1H-1,2,3-triazol-1-yl)but-1-ynyl)pyridine] |  | 130 to 131 °C
15 | O=c1n(CCC#Cc2cccc(CF)n2)nc2ccccn12 [Example 120, 2-(4-(6-(Fluoromethyl)pyridin-2-yl)but-3-ynyl)-[1,2,4]triazolo[4,3-a]pyridin-3(2H)-one] | < 10 µM | 106 to 107 °C
16 | FC(F)c1cccc(C#CCCn2nc3ccccc3n2)n1 [Example 134, 2-(4-(6-(Difluoromethyl)pyridin-2-yl)but-3-ynyl)-2H-benzo[d][1,2,3]triazole] | < 10 µM | 101.8 to 102.9 °C
17 | Fc1ccc(-c2cnn(CCC#Cc3ccccn3)n2)cc1 [Example 249, 2-(4-(4-(4-Fluorophenyl)-2H-1,2,3-triazol-2-yl)but-1-ynyl)pyridine] | < 10 µM | 83.5 to 84.5 °C
18 | Cc1nc(C#CCCc2nc3ccccc3o2)c[nH]1 [Example 231, 2-(4-(2-Methyl-1H-imidazol-4-yl)but-3-ynyl)benzo[d]oxazole] | < 10 µM | 152 to 154 °C
19 | Cc1nc(C#CCCn2nc3ccccc3n2)sc1C [Example 222, 2-(4-(4,5-Dimethylthiazol-2-yl)but-3-ynyl)-2H-benzo[d][1,2,3]triazole] | < 10 µM | 96 to 98 °C
20 | Cc1nc(C#CCCc2nc3ccccc3o2)cn1C [Example 233, 2-(4-(1,2-Dimethyl-1H-imidazol-4-yl)but-3-ynyl)benzo[d]oxazole] | < 10 µM | 117 to 119 °C
21 | FCc1cccc(C#CCCn2ncc(-c3ccc(F)cc3)n2)n1 [Example 250, 2-(Fluoromethyl)-6-(4-(4-(4-fluorophenyl)-2H-1,2,3-triazol-2-yl)but-1-ynyl)pyridine] |  | 84 to 86 °C
22 | FCc1cccc(C#CCCn2cc(-c3ccc(F)cc3)nn2)n1 [Example 254, 2-(Fluoromethyl)-6-(4-(4-(4-fluorophenyl)-1H-1,2,3-triazol-1-yl)but-1-ynyl)pyridine] |  | 100 to 103 °C
23 | Cc1csc(C#CCCn2nc3ccccc3n2)n1 [Example 229, 2-(4-(4-Methylthiazol-2-yl)but-3-ynyl)-2H-benzo[d][1,2,3]triazole] |  | 78 to 80 °C
24 | Cn1c(CCC#Cc2ccccn2)nc2cc(F)ccc21 [Example 197, 5-Fluoro-1-methyl-2-(4-(pyridin-2-yl)but-3-ynyl)-1H-benzo[d]imidazole] | < 10 µM | 
25 | COc1ccccc1C(=O)N(C)CCC#Cc1ccccn1 [Example 216, 2-Methoxy-N-methyl-N-(4-(pyridin-2-yl)but-3-ynyl)benzamide] | < 10 µM | 
26 | CC(C)c1cccc2nc(CCC#Cc3ccccn3)oc12 [Example 95, 7-Isopropyl-2-(4-(pyridin-2-yl)but-3-ynyl)benzo[d]oxazole] | < 10 µM | 
27 | Cc1cccc(-c2noc(CCC#Cc3ccccn3)n2)c1 [Example 43, 2-(4-(3-m-Tolyl-1,2,4-oxadiazol-5-yl)but-1-ynyl)pyridine] | < 10 µM | 
28 | O=C1c2ccccc2C(=O)N1CCC#Cc1ccccn1 [Example 3, 2-(4-(Pyridin-2-yl)but-3-ynyl)isoindoline-1,3-dione] | < 10 µM | 
29 | O=c1ccccn1CCC#Cc1ccccn1 [Example 198, 1-(4-(Pyridin-2-yl)but-3-ynyl)pyridin-2(1H)-one] | < 10 µM | 
30 | Fc1ccc(-c2cnn(CCC#Cc3ccccn3)c2)cc1 [Example 140, 2-(4-(4-(4-Fluorophenyl)-1H-pyrazol-1-yl)but-1-ynyl)pyridine] | < 10 µM | 

More lines, now with the values ahead:

Row | IC50 (mGluR5) | melting point | SMILES
31 | < 10 µM | 76 to 78 °C | C(#Cc1ccccn1)CCc1nc(-c2ccc3ccccc3c2)no1 [Example 51, 2-(4-(3-(Naphthalen-2-yl)-1,2,4-oxadiazol-5-yl)but-1-ynyl)pyridine]
32 | < 10 µM | 93 to 94 °C | CC(=O)Nc1cccc(C#CCCn2nc3ccccc3n2)n1 [Example 169, N-(6-(4-(2H-Benzo[d][1,2,3]triazol-2-yl)but-1-ynyl)pyridin-2-yl)acetamide]
33 | < 0.5 µM | 150 to 154 °C | CNc1cccc(C#CCCn2nc3ccccc3n2)n1 [Example 167, 6-(4-(2H-Benzo[d][1,2,3]triazol-2-yl)but-1-ynyl)-N-methylpyridin-2-amine]
34 | < 0.05 µM | 128 to 130 °C | Cl.FCc1cccc(C#CCCn2nc3cc(F)cc(F)c3n2)n1 [Example 131, 4,6-Difluoro-2-(4-(6-(fluoromethyl)pyridin-2-yl)but-3-ynyl)-2H-benzo[d][1,2,3]triazole hydrochloride]
35 | < 0.05 µM | 70.2 to 74.3 °C | FCc1cccc(C#CCCc2ccc3ccccc3n2)n1 [Example 126, 2-(4-(6-(Fluoromethyl)pyridin-2-yl)but-3-ynyl)quinoline]
36 | < 0.5 µM | 140 to 141.8 °C | FCc1cccc(C#CCCc2cn3cc(F)ccc3n2)n1 [Example 223, 6-Fluoro-2-(4-(6-(fluoromethyl)pyridin-2-yl)but-3-ynyl)H-imidazo[1,2-a]pyridine]
37 | < 0.5 µM | 120 to 122 °C | Fc1ccc(-c2cn(CCC#Cc3ccccn3)nn2)cc1 [Example 179, 2-(4-(4-(4-Fluorophenyl)-1H-1,2,3-triazol-1-yl)but-1-ynyl)pyridine]
38 | < 0.05 µM | 93.5 to 94 °C | Fc1cc(F)c2oc(CCC#Cc3ccccn3)nc2c1 [Example 89, 5,7-Difluoro-2-(4-(pyridin-2-yl)but-3-ynyl)benzo[d]oxazole]
39 | < 0.05 µM | 130 to 131 °C | Fc1cc(F)c2nc(CCC#Cc3ccccn3)cn2c1 [Example 228, 6,8-Difluoro-2-(4-(pyridin-2-yl)but-3-ynyl)-imidazo[1,2-a]pyridine]
40 | < 0.05 µM | 102 to 103 °C | Fc1ccc(Cl)c2oc(CCC#Cc3ccccn3)nc12 [Example 93, 7-Chloro-4-fluoro-2-(4-(pyridin-2-yl)but-3-ynyl)benzo[d]oxazole]
41 | < 0.05 µM | 157 to 159 °C | Cl.FCc1cccc(C#CCCn2nc3ccc(F)c(F)c3n2)n1 [Example 132, 4,5-Difluoro-2-(4-(6-(fluoromethyl)pyridin-2-yl)but-3-ynyl)-2H-benzo[d][1,2,3]triazole hydrochloride]
42 | < 0.05 µM | 136 °C (dec.) | FCc1cccc(C#CCCc2cnc3ccccc3n2)n1 [Example 129, 2-(4-(6-(Fluoromethyl)pyridin-2-yl)but-3-ynyl)quinoxaline]
43 | < 0.5 µM |  | Cc1c(Cl)cccc1-c1noc(CCC#Cc2ccccn2)n1 [Example 66, 2-(4-(3-(3-Chloro-2-methylphenyl)-1,2,4-oxadiazol-5-yl)but-1-ynyl)pyridine]
44 | < 0.05 µM |  | Cc1cccc(C#CCCn2nc3ccccc3n2)n1 [Example 137, 2-(4-(6-Methylpyridin-2-yl)but-3-ynyl)-2H-benzo[d][1,2,3]triazole]
